ChEMBL document CHEMBL2375321, “Discovery of 3,3'-diindolylmethanes as potent antileishmanial agents” (Eur J Med Chem, 2013)
pIC50: −log10 of the molar value. Values after ≈ are worked out from the molar mass of the structure shown. Active and inactive are the calls of the source. Unless noted, the rule behind the calls is not given here.

Assays:
[1] = tested on: Staphylococcus aureus; experiment: Antibacterial activity against methicillin-resistant Staphylococcus aureus ATCC 33591 by CLSI method; assay type: functional, organism-based; conditions: for pIC50: read-out: IC50
[2] = tested on: Bacillus subtilis; experiment: Antibacterial activity against Bacillus subtilis by CLSI method; assay type: functional
[3] = tested on: Staphylococcus aureus; experiment: Antibacterial activity against Staphylococcus aureus ATCC 29213 by CLSI method; assay type: functional, organism-based
[4] = tested on: Vero; experiment: Cytotoxicity against african green monkey Vero cells up to 4.6 ug/ml after 48 hrs by neutral red assay; assay type: cell-based; conditions: chlorocebus sabaeus
[5] = tested on: Mycobacterium intracellulare; experiment: Antibacterial activity against Mycobacterium intracellulare ATCC 23068 by alamar blue assay; assay type: functional, organism-based
[6] = tested on: Candida albicans; experiment: Antifungal activity against Candida albicans ATCC 90028 by CLSI method; assay type: functional, organism-based
[7] = tested on: Leishmania donovani; experiment: Antileishmanial activity against axenic amastigote of Leishmania donovani after 72 hrs by alamar blue assay; assay type: functional, organism-based; conditions: for pIC50: read-out: IC50
[8] = tested on: Leishmania donovani; experiment: Antileishmanial activity against promastigote of Leishmania donovani after 72 hrs by alamar blue assay; assay type: functional, organism-based; conditions: for pIC50: read-out: IC50
[9] = tested on: Aspergillus fumigatus; experiment: Antifungal activity against Aspergillus fumigatus ATCC 204305 by CLSI method; assay type: functional, organism-based
[10] = tested on: Cryptococcus neoformans; experiment: Antifungal activity against Cryptococcus neoformans ATCC 90113 by CLSI method; assay type: functional, organism-based
[11] = tested on: Plasmodium falciparum; experiment: Antimalarial activity against chloroquine-sensitive Plasmodium falciparum D6 assessed as plasmodial LDH activity after 72 hrs; assay type: functional, organism-based; conditions: D6, 72 h
[12] = Staphylococcus aureus, ATCC 33591

| SMILES | MIC [1, 12] | MIC [3] | Activity [4] | MBC [5] | MIC [5] | Activity [6] | MBC [1] | pIC50 [1, 12] | IC90 ([7]; Leishmania donovani, 72 h) | pIC50 ([7]; Leishmania donovani, 72 h) | IC90 ([8]; Leishmania donovani, 72 h) | pIC50 ([8]; Leishmania donovani, 72 h) | Activity [9] | pIC50 [3] | MBC [3] | pIC50 [10] | MFC [10] | MIC [10] | IC50 [5] | other results |
| --- | --- | --- | --- | --- | --- | --- | --- | --- | --- | --- | --- | --- | --- | --- | --- | --- | --- | --- | --- | --- |
| O=C1N[C@@H](c2c[nH]c3cc(Br)ccc23)CN=C1c1c[nH]c2cc(Br)ccc12 [HAMACANTHIN A] | 6.45 µM (≈ 3.14 µg/mL) | 6.45 µM (≈ 3.14 µg/mL) | – | – | – | – | – | – | – | – | – | – | – | – | – | – | – | – | – | MIC [2]: 3.22 µM (≈ 1.57 µg/mL) |
| O=[N+]([O-])c1ccc(C(c2c[nH]c3ccccc23)c2c[nH]c3ccccc23)o1 | 14 µM (≈ 5 µg/mL) | 28 µM (≈ 10 µg/mL) | Non-toxic | inactive | inactive | inactive | inactive | 5.07 | 41.8 µM | 4.50 | 12.2 µM | 5.18 | inactive | 4.92 | 28 µM (≈ 10 µg/mL) | 4.53 | inactive | inactive | – | pIC50 ([5]; Mycobacterium intracellulare, ATCC 23068, read-out: IC50): 4.28 |
| c1csc(C(c2c[nH]c3ccccc23)c2c[nH]c3ccccc23)c1 | – | 15.2 µM (≈ 4.99 µg/mL) | Non-toxic | inactive | inactive | inactive | inactive | 4.87 | 101 µM | 4.15 | – | 4.00 | inactive | 5.04 | inactive | 4.72 | 30.5 µM (≈ 10 µg/mL) | 30.5 µM (≈ 10 µg/mL) | Not Active | MIC [1]: inactive; IC90 [8]: inactive |
| Clc1cccc(Cl)c1C(c1c[nH]c2ccccc12)c1c[nH]c2ccccc12 | – | 6.41 µM (≈ 2.51 µg/mL) | Non-toxic | inactive | inactive | – | inactive | – | 81.5 µM | 4.32 | 90.8 µM | 4.09 | – | 5.63 | 51.3 µM (≈ 20.1 µg/mL) | – | – | – | Not Active | IC50 [1]: Not Active; MIC [1]: inactive; pIC50 [11]: 4.92 |
| Oc1ccc(C(c2c[nH]c3ccccc23)c2c[nH]c3ccccc23)cc1 | 59.2 µM (≈ 20 µg/mL) | 29.6 µM (≈ 10 µg/mL) | Non-toxic | inactive | inactive | inactive | inactive | 4.75 | 88.9 µM | 4.29 | 106 µM | 4.03 | inactive | 4.98 | inactive | 4.72 | 59.2 µM (≈ 20 µg/mL) | 29.6 µM (≈ 10 µg/mL) | Not Active | – |
| COc1ccc2[nH]cc(C(c3cc(F)cc(F)c3)c3c[nH]c4ccc(OC)cc34)c2c1 | 11.7 µM (≈ 4.9 µg/mL) | 11.7 µM (≈ 4.9 µg/mL) | Non-toxic | inactive | inactive | inactive | inactive | 5.16 | 78.7 µM | 4.30 | 65.3 µM | 4.57 | inactive | 5.39 | inactive | 4.74 | inactive | 47.9 µM (≈ 20 µg/mL) | Not Active | – |
| Fc1cc(F)cc(C(c2c[nH]c3ccccc23)c2c[nH]c3ccccc23)c1 | 6.98 µM (≈ 2.5 µg/mL) | 3.49 µM (≈ 1.25 µg/mL) | Non-toxic | inactive | inactive | inactive | inactive | 5.53 | 95.6 µM | 4.17 | 19.8 µM | 5.08 | inactive | 5.63 | inactive | 5.63 | 3.49 µM (≈ 1.25 µg/mL) | 3.49 µM (≈ 1.25 µg/mL) | Not Active | – |
| Oc1ccccc1C(c1c[nH]c2ccccc12)c1c[nH]c2ccccc12 | – | 59.2 µM (≈ 20 µg/mL) | Non-toxic | inactive | inactive | inactive | inactive | 4.44 | – | 4.02 | 75.7 µM | 4.39 | inactive | 4.76 | inactive | 4.83 | inactive | 59.2 µM (≈ 20 µg/mL) | Not Active | MIC [1]: inactive; IC90 [7]: inactive |
| Fc1ccc(C(c2c[nH]c3ccccc23)c2c[nH]c3ccccc23)cc1Br | 23.9 µM (≈ 10 µg/mL) | 5.98 µM (≈ 2.51 µg/mL) | Non-toxic | inactive | inactive | inactive | inactive | 5.03 | 74.5 µM | 4.32 | 22.9 µM | 4.75 | inactive | 5.42 | inactive | 5.71 | 5.98 µM (≈ 2.51 µg/mL) | 2.99 µM (≈ 1.25 µg/mL) | Not Active | – |
| Brc1cccc(C(c2c[nH]c3ccccc23)c2c[nH]c3ccccc23)c1 | 12.5 µM (≈ 5.02 µg/mL) | 12.5 µM (≈ 5.02 µg/mL) | Non-toxic | inactive | inactive | inactive | inactive | 5.20 | 75.6 µM | 4.45 | 59.4 µM | 4.56 | inactive | 5.43 | inactive | 5.27 | 12.5 µM (≈ 5.02 µg/mL) | 12.5 µM (≈ 5.02 µg/mL) | Not Active | – |
| Oc1ccc(C(c2c[nH]c3ccc(I)cc23)c2c[nH]c3ccc(I)cc23)cc1 | 2.12 µM (≈ 1.25 µg/mL) | 4.24 µM (≈ 2.5 µg/mL) | Non-toxic | inactive | inactive | inactive | – | 5.94 | 52.5 µM | 4.40 | 53.2 µM | 4.72 | inactive | 5.68 | 33.9 µM (≈ 20 µg/mL) | 5.74 | – | – | Not Active | MBC [1, 12]: 10 µM (≈ 5.9 µg/mL) |
| Clc1ccc(C(c2c[nH]c3ccccc23)c2c[nH]c3ccccc23)cc1 | 14 µM (≈ 5 µg/mL) | 7.02 µM (≈ 2.51 µg/mL) | Non-toxic | inactive | inactive | inactive | – | 5.21 | 77 µM | 4.38 | 39 µM | 4.57 | inactive | 5.42 | inactive | 5.25 | 14 µM (≈ 5.01 µg/mL) | 14 µM (≈ 5.01 µg/mL) | Not Active | MBC [1, 12]: 56.2 µM (≈ 20.1 µg/mL) |
